Measurements reported in ChEMBL document CHEMBL1201862, “PubChem BioAssay data set” (2004).
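Following 48 hours of exposure in 96-well plates, responses at five concentrations were used to interpolate endpoints linearly. The concentration for 50% growth inhibition is given as GI50.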 Activity calls are given as the source filed them. Cut-off read from the data, not from the text of the source: active = GI50 up to about 1.1 µM and inactive = higher.

What was measured:
Assay in all cases: inhibition of tumour cell growth, NCI panel, 48 h
[1] = test system: SK-MEL-28
[2] = test system: SF-268
[3] = test system: ACHN
[4] = test system: UACC-62
[5] = test system: M19-MEL
[6] = test system: CAKI-1
[7] = test system: COLO 205
[8] = test system: K562
[9] = test system: HCC 2998
[10] = test system: SF-295
[11] = test system: SF-539
[12] = test system: HOP-92
[13] = test system: SW-620
[14] = test system: HOP-62
[15] = test system: RPMI-8226
[16] = test system: NCI-H226
[17] = test system: SN12C
[18] = test system: T47D
[19] = test system: Hs-578T
[20] = test system: BT-549

Row | Structure (SMILES) | GI50 [1] | GI50 [2] | GI50 [3] | GI50 [4] | GI50 [5] | GI50 [6] | GI50 [7] | GI50 [8] | GI50 [9] | GI50 [10] | GI50 [11] | GI50 [12] | GI50 [13] | GI50 [14] | GI50 [15] | GI50 [16] | GI50 [17] | GI50 [18] | GI50 [19] | GI50 [20]
1 | COc1ccc2[nH]c3c(c2c1)CCN(C)CC3 | > 100 µM (inactive) | > 100 µM (inactive) | > 100 µM (inactive) | > 100 µM (inactive) | 57.4 µM (inactive) | > 100 µM (inactive) | > 100 µM (inactive) | > 100 µM (inactive) | > 100 µM (inactive) | > 100 µM (inactive) | > 100 µM (inactive) | > 100 µM (inactive) | > 100 µM (inactive) | > 100 µM (inactive) | > 100 µM (inactive) |  |  |  |  | 
2 | O=[N+]([O-])c1ccc(C[P+](c2ccccc2)(c2ccccc2)c2ccccc2)cc1 | 35.1 µM (inactive) |  | > 100 µM (inactive) | 32.1 µM (inactive) | 24.2 µM (inactive) |  | 25.4 µM (inactive) | 70.8 µM (inactive) | 36.1 µM (inactive) | > 100 µM (inactive) | 67.8 µM (inactive) |  | 88.3 µM (inactive) | > 100 µM (inactive) | 26.2 µM (inactive) | > 100 µM (inactive) | > 100 µM (inactive) |  |  | 
3 | O=C(O)c1cc(=O)c2[nH]c3ccccc3c2s1 | > 100 µM (inactive) | > 100 µM (inactive) | > 100 µM (inactive) | > 100 µM (inactive) | > 100 µM (inactive) | > 100 µM (inactive) | > 100 µM (inactive) | > 100 µM (inactive) | > 100 µM (inactive) | > 100 µM (inactive) |  | > 100 µM (inactive) | > 100 µM (inactive) | > 100 µM (inactive) | > 100 µM (inactive) |  | > 100 µM (inactive) |  |  | 
4 | O=C1OC(=O)C2C1C1(c3ccccc3)OC2(c2ccccc2)c2c(Br)c(Br)c(Br)c(Br)c21 (stereo not drawn) |  | > 100 µM (inactive) |  | > 100 µM (inactive) | > 100 µM (inactive) | > 100 µM (inactive) | > 100 µM (inactive) | > 100 µM (inactive) |  | > 100 µM (inactive) | > 100 µM (inactive) | > 100 µM (inactive) | > 100 µM (inactive) | > 100 µM (inactive) | > 100 µM (inactive) | > 100 µM (inactive) | > 100 µM (inactive) |  |  | 
5 | CCOCc1cc(=O)c2c(OC)cc3c(c2o1)CCC(C)(C)O3 | > 100 µM (inactive) |  | > 100 µM (inactive) | > 100 µM (inactive) | > 100 µM (inactive) |  |  | > 100 µM (inactive) | > 100 µM (inactive) | > 100 µM (inactive) | > 100 µM (inactive) | 33.4 µM (inactive) | > 100 µM (inactive) | > 100 µM (inactive) |  |  | > 100 µM (inactive) |  |  | 
6 | C/C(=C1/N=C(c2ccccc2)OC1=O)c1cccs1 | > 100 µM (inactive) | > 100 µM (inactive) | > 100 µM (inactive) | > 100 µM (inactive) |  | > 100 µM (inactive) | > 100 µM (inactive) | > 100 µM (inactive) | > 100 µM (inactive) | > 100 µM (inactive) | > 100 µM (inactive) | > 100 µM (inactive) | > 100 µM (inactive) | 55 µM (inactive) | > 100 µM (inactive) | > 100 µM (inactive) | > 100 µM (inactive) | > 100 µM (inactive) | 73.5 µM (inactive) | > 100 µM (inactive)
7 | COc1cc2ccnc3c2c(c1OC)-c1coc(SC)c1-3 |  | 92 µM (inactive) | > 100 µM (inactive) | 86.1 µM (inactive) | > 100 µM (inactive) | 20.8 µM (inactive) | > 100 µM (inactive) | > 100 µM (inactive) | > 100 µM (inactive) | 13.4 µM (inactive) | 56.5 µM (inactive) | 29 µM (inactive) | > 100 µM (inactive) | 54.8 µM (inactive) | 13 µM (inactive) |  | > 100 µM (inactive) |  |  | 
8 | Nn1c(-c2ccccc2)n[nH]c1=O | > 100 µM (inactive) | > 100 µM (inactive) | > 100 µM (inactive) | > 100 µM (inactive) |  | > 100 µM (inactive) | > 100 µM (inactive) | > 10 µM (inactive) | > 100 µM (inactive) | > 100 µM (inactive) | > 100 µM (inactive) | > 100 µM (inactive) | > 100 µM (inactive) | > 100 µM (inactive) | > 100 µM (inactive) | > 100 µM (inactive) | > 100 µM (inactive) | > 100 µM (inactive) | 58.3 µM (inactive) | > 100 µM (inactive)
9 | N#Cc1cc(NC(=O)c2ccccc2)c(=O)n2c1[nH]c1ccccc12 | 21.6 µM (inactive) | 43.1 µM (inactive) | 29.9 µM (inactive) | 17.4 µM (inactive) | 30.1 µM (inactive) | 35.9 µM (inactive) | 31.6 µM (inactive) | 31.7 µM (inactive) | 28.8 µM (inactive) | 71 µM (inactive) | 21.5 µM (inactive) |  | 39 µM (inactive) | 24.5 µM (inactive) | 11.7 µM (inactive) |  | 29.1 µM (inactive) |  |  | 
10 | N=C(N)NS(=O)(=O)c1ccc(NC(=O)c2cccc3c(NNc4ccc(C(=O)O)cc4)c4ccccc4nc23)cc1 | > 100 µM (inactive) | 58.7 µM (inactive) | > 100 µM (inactive) | 70.1 µM (inactive) |  | > 100 µM (inactive) | 65 µM (inactive) | 50.1 µM (inactive) | 52.2 µM (inactive) | > 100 µM (inactive) | 71.3 µM (inactive) | 24.2 µM (inactive) | > 100 µM (inactive) | > 100 µM (inactive) | > 100 µM (inactive) | 64 µM (inactive) | > 100 µM (inactive) | 39.6 µM (inactive) | > 100 µM (inactive) | > 100 µM (inactive)
11 | CCCN1C(=O)CN(S(=O)(=O)c2ccc(Cl)cc2)C1=O | > 100 µM (inactive) | > 100 µM (inactive) | > 100 µM (inactive) | > 100 µM (inactive) |  | > 100 µM (inactive) | > 100 µM (inactive) | > 100 µM (inactive) | > 100 µM (inactive) | > 100 µM (inactive) | > 100 µM (inactive) | > 100 µM (inactive) | > 100 µM (inactive) | > 100 µM (inactive) | > 100 µM (inactive) | > 100 µM (inactive) | > 100 µM (inactive) | > 100 µM (inactive) | > 100 µM (inactive) | > 100 µM (inactive)
12 | COc1ccc(/C=C/C(=O)/C=C/c2ccc(OC)cc2)cc1 | > 100 µM (inactive) | 54.6 µM (inactive) | 89.1 µM (inactive) | > 100 µM (inactive) |  | > 100 µM (inactive) | 34.5 µM (inactive) | 31.6 µM (inactive) | 0.222 µM (active) | > 100 µM (inactive) | 26.4 µM (inactive) | 32.5 µM (inactive) | 23.7 µM (inactive) | > 100 µM (inactive) | 5.01 µM (inactive) | 22.4 µM (inactive) | > 100 µM (inactive) | 55.3 µM (inactive) | 47.2 µM (inactive) | 29.4 µM (inactive)
13 | Nc1cc(=O)n(-c2ccccc2)c(=S)n1-c1ccccc1 |  | > 100 µM (inactive) | > 100 µM (inactive) | > 100 µM (inactive) | > 100 µM (inactive) | > 100 µM (inactive) | > 100 µM (inactive) | > 100 µM (inactive) | > 100 µM (inactive) | > 100 µM (inactive) | > 100 µM (inactive) |  | > 100 µM (inactive) | > 100 µM (inactive) | > 100 µM (inactive) | > 100 µM (inactive) | > 100 µM (inactive) |  |  | 
14 | COCc1c(CO)cnc(C)c1OC1OC(CO)C(O)C(O)C1O (stereo not drawn) | > 100 µM (inactive) | > 100 µM (inactive) | > 100 µM (inactive) | > 100 µM (inactive) | > 100 µM (inactive) | > 100 µM (inactive) |  | > 100 µM (inactive) | > 100 µM (inactive) | > 100 µM (inactive) | > 100 µM (inactive) |  | > 100 µM (inactive) | > 100 µM (inactive) | > 100 µM (inactive) | > 100 µM (inactive) | > 100 µM (inactive) |  |  | 
15 | [N-]=[N+]=Nc1c([N+](=O)[O-])c(=O)n2c3c(cccc13)CCC2 | 5.62 µM (inactive) | 13.6 µM (inactive) | 17.8 µM (inactive) | 14 µM (inactive) |  | 13.2 µM (inactive) | 6.28 µM (inactive) | 1.75 µM (inactive) | 19.1 µM (inactive) | > 65.5 µM (inactive) | 23.2 µM (inactive) | 14 µM (inactive) | 3.9 µM (inactive) | > 100 µM (inactive) | 3.15 µM (inactive) | 24.2 µM (inactive) | 9.77 µM (inactive) | 5.42 µM (inactive) | 26.2 µM (inactive) | 18.4 µM (inactive)
16 | O=c1[nH]c(Br)nc2c(Br)c[nH]c12 | > 100 µM (inactive) | > 100 µM (inactive) | > 100 µM (inactive) | > 100 µM (inactive) | > 100 µM (inactive) | > 100 µM (inactive) | > 100 µM (inactive) | > 100 µM (inactive) |  | > 100 µM (inactive) | > 100 µM (inactive) | > 100 µM (inactive) | > 100 µM (inactive) | > 100 µM (inactive) | > 100 µM (inactive) | > 100 µM (inactive) | > 100 µM (inactive) |  |  | 
17 | Cc1ccc(S(=O)(=O)Nc2ccccc2C(C)(C)C)cc1 | 19.7 µM (inactive) |  | 28.1 µM (inactive) | 16.1 µM (inactive) | 25.6 µM (inactive) | 18.7 µM (inactive) |  | 18 µM (inactive) | 42.8 µM (inactive) | 13.7 µM (inactive) | 17.3 µM (inactive) |  | 32.3 µM (inactive) | 20 µM (inactive) | 18.7 µM (inactive) | 22.1 µM (inactive) |  |  |  | 
